Laboratory results: patent US10670605B2, “Cysteine reactive probes and uses thereof” (The Scripps Research Institute, priority 2015, dated 2020)

Experiments:
Assay in all cases: Competitive isoTOP-ABPP in situ (fragment-treated cells)
Format in all cases: cell-based
[1] = target: T1, cysteines in MDA-MB-231 and Ramos cells (Homo sapiens, UniProt P29590)
T1 sequence (P29590 1-882): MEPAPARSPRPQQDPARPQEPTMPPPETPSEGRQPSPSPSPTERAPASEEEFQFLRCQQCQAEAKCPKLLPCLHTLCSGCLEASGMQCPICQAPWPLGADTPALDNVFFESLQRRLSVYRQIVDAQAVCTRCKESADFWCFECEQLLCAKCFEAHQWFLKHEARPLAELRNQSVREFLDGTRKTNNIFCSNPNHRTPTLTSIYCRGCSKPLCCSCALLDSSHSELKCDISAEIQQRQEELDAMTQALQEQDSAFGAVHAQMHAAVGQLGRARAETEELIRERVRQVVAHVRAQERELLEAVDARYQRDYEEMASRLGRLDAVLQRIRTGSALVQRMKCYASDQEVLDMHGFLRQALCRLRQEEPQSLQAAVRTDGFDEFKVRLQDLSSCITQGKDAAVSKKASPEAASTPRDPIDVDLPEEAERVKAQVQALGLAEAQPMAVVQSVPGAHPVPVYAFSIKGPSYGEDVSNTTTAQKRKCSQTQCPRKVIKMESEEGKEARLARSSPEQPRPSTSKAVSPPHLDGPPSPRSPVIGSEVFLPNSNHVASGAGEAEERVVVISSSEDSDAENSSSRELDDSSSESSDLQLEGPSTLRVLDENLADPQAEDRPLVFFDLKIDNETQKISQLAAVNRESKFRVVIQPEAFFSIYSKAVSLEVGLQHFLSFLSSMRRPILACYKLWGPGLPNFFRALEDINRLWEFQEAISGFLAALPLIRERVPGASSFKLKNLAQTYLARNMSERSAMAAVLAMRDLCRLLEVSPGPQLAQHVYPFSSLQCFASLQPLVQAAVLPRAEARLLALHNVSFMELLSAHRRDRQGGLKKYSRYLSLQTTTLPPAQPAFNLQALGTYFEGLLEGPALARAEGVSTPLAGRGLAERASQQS

[2] = target: cysteines in MDA-MB-231 and Ramos cells (Homo sapiens, UniProt P27707)
[3] = target: T2, cysteines in MDA-MB-231 and Ramos cells (Homo sapiens, UniProt P53384)
T2 sequence (P53384 1-320): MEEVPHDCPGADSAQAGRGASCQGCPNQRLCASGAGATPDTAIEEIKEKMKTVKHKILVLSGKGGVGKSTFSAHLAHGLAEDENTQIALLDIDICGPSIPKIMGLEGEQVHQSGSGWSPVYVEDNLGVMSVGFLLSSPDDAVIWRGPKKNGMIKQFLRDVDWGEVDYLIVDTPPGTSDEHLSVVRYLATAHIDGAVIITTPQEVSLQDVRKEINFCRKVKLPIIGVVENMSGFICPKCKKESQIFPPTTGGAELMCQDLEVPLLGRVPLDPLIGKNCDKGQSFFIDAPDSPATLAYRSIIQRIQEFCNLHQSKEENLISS

[4] = target: cysteines in MDA-MB-231 and Ramos cells (Homo sapiens, UniProt Q06203); conditions: for isoTOP-ABPP ratio, cysteine Q06203_C100 / isoTOP-ABPP ratio Q06203_C100: 200 μM, insitu
[5] = target: T3, cysteines in MDA-MB-231 and Ramos cells (Homo sapiens, UniProt O14929)
T3 sequence (O14929 1-419): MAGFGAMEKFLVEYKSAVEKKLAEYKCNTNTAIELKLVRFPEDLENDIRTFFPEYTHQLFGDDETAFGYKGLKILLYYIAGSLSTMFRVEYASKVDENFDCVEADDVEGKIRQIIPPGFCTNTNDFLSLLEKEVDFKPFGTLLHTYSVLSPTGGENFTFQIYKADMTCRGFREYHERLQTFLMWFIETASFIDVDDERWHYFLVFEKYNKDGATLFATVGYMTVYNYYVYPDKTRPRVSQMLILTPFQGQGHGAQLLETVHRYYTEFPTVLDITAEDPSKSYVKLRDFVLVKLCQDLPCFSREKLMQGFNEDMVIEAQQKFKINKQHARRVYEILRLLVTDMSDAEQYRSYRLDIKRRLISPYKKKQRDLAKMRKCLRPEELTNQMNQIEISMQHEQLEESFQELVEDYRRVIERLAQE

[6] = target: T4, cysteines in MDA-MB-231 and Ramos cells (Homo sapiens, UniProt Q5TFE4); conditions: 200 μM, insitu
T4 sequence (Q5TFE4 1-455): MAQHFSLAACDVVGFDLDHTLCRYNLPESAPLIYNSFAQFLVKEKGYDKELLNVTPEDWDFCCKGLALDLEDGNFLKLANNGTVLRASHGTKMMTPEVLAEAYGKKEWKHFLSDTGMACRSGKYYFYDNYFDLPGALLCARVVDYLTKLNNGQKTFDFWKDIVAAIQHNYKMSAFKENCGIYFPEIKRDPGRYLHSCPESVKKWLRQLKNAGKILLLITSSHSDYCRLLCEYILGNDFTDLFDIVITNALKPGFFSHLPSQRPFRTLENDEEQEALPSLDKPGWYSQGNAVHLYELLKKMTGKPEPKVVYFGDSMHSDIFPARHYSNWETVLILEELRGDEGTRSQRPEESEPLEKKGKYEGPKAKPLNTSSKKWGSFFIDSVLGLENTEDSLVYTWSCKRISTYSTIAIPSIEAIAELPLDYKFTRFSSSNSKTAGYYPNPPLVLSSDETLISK

cysteines in MDA-MB-231 and Ramos cells (Homo sapiens, UniProt P27707), sequence (P27707 whole entry): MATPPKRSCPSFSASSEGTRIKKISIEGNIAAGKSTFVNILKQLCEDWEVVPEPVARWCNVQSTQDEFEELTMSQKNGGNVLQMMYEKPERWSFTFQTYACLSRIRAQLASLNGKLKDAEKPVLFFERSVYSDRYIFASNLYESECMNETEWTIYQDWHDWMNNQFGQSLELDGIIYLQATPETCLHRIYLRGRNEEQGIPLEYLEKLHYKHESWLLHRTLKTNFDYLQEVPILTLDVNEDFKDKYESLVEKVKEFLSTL
cysteines in MDA-MB-231 and Ramos cells (Homo sapiens, UniProt Q06203), sequence (Q06203 12-517): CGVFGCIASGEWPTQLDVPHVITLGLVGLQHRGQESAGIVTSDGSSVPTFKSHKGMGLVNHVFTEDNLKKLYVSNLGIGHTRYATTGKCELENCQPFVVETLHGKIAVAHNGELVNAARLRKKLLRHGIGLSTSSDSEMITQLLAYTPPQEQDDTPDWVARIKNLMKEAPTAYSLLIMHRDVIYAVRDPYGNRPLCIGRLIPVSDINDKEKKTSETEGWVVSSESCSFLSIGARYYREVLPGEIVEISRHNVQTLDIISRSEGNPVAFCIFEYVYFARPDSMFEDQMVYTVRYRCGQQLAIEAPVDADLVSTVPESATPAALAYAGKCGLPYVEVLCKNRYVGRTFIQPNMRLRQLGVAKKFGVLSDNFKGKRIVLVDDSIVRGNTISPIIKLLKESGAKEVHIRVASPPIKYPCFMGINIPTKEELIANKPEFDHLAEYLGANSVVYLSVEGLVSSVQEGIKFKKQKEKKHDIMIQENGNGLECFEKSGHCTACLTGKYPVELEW

SMILES: COc1ccc2c(c1)CCCN2C(=O)CCl [compound 2]
- isoTOP-ABPP reactivity P29590_C389 PML ([1]; 200 μM, insitu, 231): 15.6

SMILES: COc1ccc(C2CC(c3cccs3)=NN2C(=O)CCl)cc1 (stereo not drawn) [compound 4]
- isoTOP-ABPP reactivity P27707_C9 DCK ([2]; 100 μM in situ 231): 1.4
- isoTOP-ABPP reactivity P53384_C235 NUBP1 ([3]; 100 μM in situ 231): 0.6
- isoTOP-ABPP reactivity Q06203_C100 PPAT ([4]; 100 μM in situ 231): 1.7

SMILES: COc1cc2c(cc1OC)CN(C(=O)CCl)CC2 [compound 8]
- isoTOP-ABPP reactivity P53384_C235 NUBP1 ([3]; 200 μM, insitu, 231): 0.6

SMILES: O=C(CCl)N1CCC(Cc2ccccc2)CC1 [compound 9]
- isoTOP-ABPP reactivity O14929_C101 HAT1 ([5]; 200 μM, insitu, 231): 9.0
- isoTOP-ABPP reactivity P27707_C9 DCK ([2]; 200 μM, insitu, 231): 4.9
- isoTOP-ABPP reactivity P53384_C235 NUBP1 ([3]; 200 μM, insitu, 231): 6.8
- isoTOP-ABPP reactivity Q5TFE4_C119 NT5DC1 [6]; 231: 20.0

SMILES: O=C(CCl)N1CCN(S(=O)(=O)c2ccccc2F)CC1 [compound 10]
- isoTOP-ABPP ratio O14929_C101 ([5]; 200 μM, insitu, 231): 20.0
- isoTOP-ABPP ratio P27707_C9 ([2]; 200 μM, insitu, 231): 1.9
- isoTOP-ABPP ratio P27707_C9 ([2]; 200 μM, insitu, ramos): 1.7
- isoTOP-ABPP ratio P29590_C389 ([1]; 200 μM, insitu, 231): 7.9
- isoTOP-ABPP ratio, cysteine Q06203_C100 ([4]; ramos): 20.0
- isoTOP-ABPP ratio, cysteine Q5TFE4_C119 ([6]; ramos): 20.0

SMILES: Cn1cc(S(=O)(=O)N2CCOCC2)cc1C(=O)NC(=O)CCl [compound 11]
- isoTOP-ABPP ratio O14929_C101 ([5]; 100 μM in situ 231): 0.8
- isoTOP-ABPP ratio P27707_C9 ([2]; 100 μM in situ 231): 0.5
- isoTOP-ABPP ratio P29590_C389 ([1]; 100 μM in situ 231): 0.5

SMILES: O=C(CCl)NC(=O)NC12CC3CC(CC(C3)C1)C2 [compound 12]
- isoTOP-ABPP ratio O14929_C101 ([5]; 200 μM, insitu, 231): 20.0
- isoTOP-ABPP ratio P27707_C9 ([2]; 200 μM, insitu, 231): 1.4
- isoTOP-ABPP ratio, cysteine P53384_C235 ([3]; 200 μM, insitu, 231): 0.5

SMILES: O=C(CCl)NCCc1c[nH]c2ccccc12 [compound 13]
- isoTOP-ABPP ratio O14929_C101 ([5]; 200 μM, insitu, 231): 0.9
- isoTOP-ABPP ratio O14929_C101 ([5]; 200 μM, insitu, ramos): 1.2
- isoTOP-ABPP ratio P27707_C9 ([2]; 200 μM, insitu, 231): 1.0
- isoTOP-ABPP ratio P27707_C9 ([2]; 200 μM, insitu, ramos): 1.3
- isoTOP-ABPP ratio P29590_C389 ([1]; 200 μM, insitu, 231): 1.3
- isoTOP-ABPP ratio, cysteine Q06203_C100 ([4]; ramos): 2.0
- isoTOP-ABPP ratio, cysteine Q5TFE4_C119 ([6]; ramos): 1.7

SMILES: O=C(CCl)NC12CC3CC(CC(C3)C1)C2 [compound 21]
- isoTOP-ABPP ratio O14929_C101 ([5]; 200 μM, insitu, 231): 1.2
- isoTOP-ABPP ratio P27707_C9 ([2]; 200 μM, insitu, 231): 1.3
- isoTOP-ABPP ratio P29590_C389 ([1]; 200 μM, insitu, 231): 20.0
- isoTOP-ABPP ratio, cysteine Q5TFE4_C119 [6]; 231: 1.2

SMILES: CC(C)CCOCCNC(=O)CCl [compound 27]
- isoTOP-ABPP ratio P29590_C389 ([1]; 200 μM, insitu, 231): 0.5
- reactivity profile of liganded cysteine P29590_C213 with fragment electrophile (isoTOP-ABPP ratio) ([1]; cysteine P29590_C213, fragment 200 μM, in situ, 231 (MDA-MB-231) cells): 0.8
- isoTOP-ABPP ratio Q06203_C100 [4]; 231: 0.8

SMILES: O=C(CCl)N1CCN(CC(=O)N2CCOCC2)CC1 [compound 29]
- isoTOP-ABPP ratio O14929_C101 ([5]; 200 μM, insitu, ramos): 1.0
- isoTOP-ABPP ratio P27707_C9 ([2]; 200 μM, insitu, ramos): 1.2
- isoTOP-ABPP ratio Q06203_C100 ([4]; ramos): 1.6

SMILES: C=CC(=O)N(Cc1cccnc1)c1cc(C(F)(F)F)cc(C(F)(F)F)c1 [compound 31]
- isoTOP-ABPP ratio P27707_C9 ([2]; 200 μM, insitu, ramos): 1.2
- isoTOP-ABPP ratio P29590_C389 ([1]; 200 μM, insitu, 231): 1.1
- isoTOP-ABPP ratio P53384_C235 ([3]; 200 μM, insitu, 231): 0.7
- isoTOP-ABPP ratio Q06203_C100 [4]; 231: 0.6
- isoTOP-ABPP ratio Q06203_C100 ([4]; ramos): 1.2
- isoTOP-ABPP ratio Q5TFE4_C119 [6]; 231: 3.1

SMILES: C=CC(=O)Nc1cc(F)c(N2CCN(C(=O)OC(C)(C)C)CC2)c(F)c1 [compound 38]
- isoTOP-ABPP ratio O14929_C101 ([5]; 200 μM, insitu, 231): 1.1
- isoTOP-ABPP ratio P27707_C9 ([2]; 200 μM, insitu, 231): 1.8
- isoTOP-ABPP ratio P29590_C389 ([1]; 200 μM, insitu, 231): 2.2
- isoTOP-ABPP ratio P53384_C235 ([3]; 200 μM, insitu, 231): 2.0
- isoTOP-ABPP ratio Q06203_C100 [4]; 231: 1.2

SMILES: Cc1ccc(C=C(C#N)C(=O)NCCN2CCOCC2)cc1 [compound 41]
- isoTOP-ABPP ratio O14929_C101 ([5]; 200 μM, insitu, 231): 0.6
- isoTOP-ABPP ratio P27707_C9 ([2]; 200 μM, insitu, 231): 0.4
- isoTOP-ABPP ratio P29590_C389 ([1]; 200 μM, insitu, 231): 0.4
- isoTOP-ABPP ratio P53384_C235 ([3]; 200 μM, insitu, 231): 0.2
- isoTOP-ABPP ratio Q5TFE4_C119 [6]; 231: 0.5

SMILES: CC1CCc2ccccc2N1C(=O)CCl (stereo not drawn) [compound 45]
- isoTOP-ABPP ratio O14929_C101 ([5]; 200 μM, insitu, 231): 20.0
- isoTOP-ABPP ratio P29590_C389 ([1]; 200 μM, insitu, 231): 3.4

SMILES: O=C(CCl)Nc1cccc2ncccc12 [compound 51]
- isoTOP-ABPP ratio P29590_C389 ([1]; 200 μM, insitu, 231): 0.9
